Results published in patent US7625841B2, “Substituted thiene-3-ylsulphonylamino(thio)carbonyltriazolin(ethi)ones” (Bayer CropScience AG, priority 2001, dated 2009).

What was measured:
Type in all cases: in vivo
Amaranthus = assay: Pre-emergence test/greenhouse; details: greenhouse, application rate 15 gai/ha, rated after three weeks, 0%=no effect, 100%=total destruction
Method: (§1) • Solvent: 5 parts by weight of acetone • Emulsifier: 1 part by weight of alkylaryl polyglycol ether
(§2) To produce a suitable preparation of active compound, 1 part by weight of active compound is mixed with the stated amount of solvent, the stated amount of emulsifier is added and the concetrate is diluted with water to the desired concentration.
(§3) Seeds of the test plants are sown in normal soil. After 24 hours, the soil is sprayed with the preparation of active compound such that the particular amount of active compound desired is applied per unit area. The concentration of active compound in the spray liquor is chosen such that the particular amount of active compound desired is applied in 1000 litres of water per hectare.
(§4) After three weeks, the degree of damage to the plants is rated in % damage in comparison to the development of the untreated control. The figures denote: • 0%=no effect (like untreated control) • 100%=total destruction

Avena fatua [1] = assay: Pre-emergence test/greenhouse; details: greenhouse, application rate 15 gai/ha, rated after three weeks, 0%=no effect, 100%=total destruction
Method: as §1, §2, §3, §4

Chenopodium = assay: Pre-emergence test/greenhouse; details: greenhouse, application rate 15 gai/ha, rated after three weeks, 0%=no effect, 100%=total destruction
Method: as §1, §2, §3, §4

Digitaria [2] = assay: Pre-emergence test/greenhouse; details: greenhouse, application rate 15 gai/ha, rated after three weeks, 0%=no effect, 100%=total destruction
Method: as §1, §2, §3, §4

Galium = assay: Pre-emergence test/greenhouse; details: greenhouse, application rate 15 gai/ha, rated after three weeks, 0%=no effect, 100%=total destruction
Method: as §1, §2, §3, §4

Lolium [3] = assay: Pre-emergence test/greenhouse; details: greenhouse, application rate 15 gai/ha, rated after three weeks, 0%=no effect, 100%=total destruction
Method: as §1, §2, §3, §4

Matricaria = assay: Pre-emergence test/greenhouse; details: Matricaria, 504 h, greenhouse, application rate 15 gai/ha, rated after three weeks, 0%=no effect, 100%=total destruction, read-out: degree of damage to the plants, Matricaria
Method: as §1, §2, §3, §4

Polygonum = assay: Pre-emergence test/greenhouse; details: greenhouse, application rate 15 gai/ha, rated after three weeks, 0%=no effect, 100%=total destruction
Method: as §1, §2, §3, §4

Setaria [4] = assay: Pre-emergence test/greenhouse; details: greenhouse, application rate 15 gai/ha, rated after three weeks, 0%=no effect, 100%=total destruction
Method: as §1, §2, §3, §4

Solanum = assay: Pre-emergence test/greenhouse; details: greenhouse, application rate 15 gai/ha, rated after three weeks, 0%=no effect, 100%=total destruction
Method: as §1, §2, §3, §4

Stellaria = assay: Pre-emergence test/greenhouse; details: greenhouse, application rate 15 gai/ha, rated after three weeks, 0%=no effect, 100%=total destruction
Method: as §1, §2, §3, §4

Xanthium = assay: Pre-emergence test/greenhouse; details: greenhouse, application rate 15 gai/ha, rated after three weeks, 0%=no effect, 100%=total destruction
Method: as §1, §2, §3, §4

maize = assay: Pre-emergence test/greenhouse; details: greenhouse, application rate 15 gai/ha, rated after three weeks, 0%=no effect, 100%=total destruction
Method: as §1, §2, §3, §4

soybeans = assay: Pre-emergence test/greenhouse; details: greenhouse, application rate 15 gai/ha, rated after three weeks, 0%=no effect, 100%=total destruction
Method: as §1, §2, §3, §4

wheat = assay: Pre-emergence test/greenhouse; details: greenhouse, application rate 15 gai/ha, rated after three weeks, 0%=no effect, 100%=total destruction
Method: as §1, §2, §3, §4

Alopecurus [5] = assay: Post-emergence test/greenhouse; details: greenhouse, application rate 15 gai/ha, rated after three weeks, 0%=no effect, 100%=total destruction
Method: as §1
(§5) To produce a suitable preparation of active compound, 1 part by weight of active compound is mixed with the stated amount of solvent, the stated amount of emulsifier is added and the concentrate is diluted with water to the desired concentration.
(§6) Test plants of a height of 5-15 cm are sprayed with the preparation of active compound such that the particular amounts of active compound desired are applied per unit area. The concentration of the spray liquor is chosen such that the particular amounts of active compound desired are applied in 1000 l of water/ha.
(§7) After three weeks, the degree of damage to the plants is rated in % damage in comparison to the development of the untreated control.
(§8) The figures denote: • 0%=no effect (like untreated control) • 100%=total destruction

Avena fatua [6] = assay: Post-emergence test/greenhouse; details: greenhouse, application rate 15 gai/ha, rated after three weeks, 0%=no effect, 100%=total destruction
Method: as §1, §5, §6, §7, §8

Bromus [7] = assay: Post-emergence test/greenhouse; details: greenhouse, application rate 15 gai/ha, rated after three weeks, 0%=no effect, 100%=total destruction
Method: as §1, §5, §6, §7, §8

Digitaria [8] = assay: Post-emergence test/greenhouse; details: greenhouse, application rate 15 gai/ha, rated after three weeks, 0%=no effect, 100%=total destruction
Method: as §1, §5, §6, §7, §8

Echinochloa = assay: Post-emergence test/greenhouse; details: greenhouse, application rate 15 gai/ha, rated after three weeks, 0%=no effect, 100%=total destruction
Method: as §1, §5, §6, §7, §8

Lolium [9] = assay: Post-emergence test/greenhouse; details: greenhouse, application rate 15 gai/ha, rated after three weeks, 0%=no effect, 100%=total destruction
Method: as §1, §5, §6, §7, §8

Setaria [10] = assay: Post-emergence test/greenhouse; details: greenhouse, application rate 15 gai/ha, rated after three weeks, 0%=no effect, 100%=total destruction
Method: as §1, §5, §6, §7, §8

Alopecurus [11] = assay: Pre-emergence test/greenhouse; details: greenhouse, application rate 15 gai/ha, rated after three weeks, 0%=no effect, 100%=total destruction
Method: as §1, §2, §3, §4

Bromus [12] = assay: Pre-emergence test/greenhouse; details: greenhouse, application rate 15 gai/ha, rated after three weeks, 0%=no effect, 100%=total destruction
Method: as §1, §2, §3, §4

weeds [13] = assay: Post-emergence test, summary for weeds
Method: as §1, §5, §6, §7, §8

[14] = test system: crop plants such as, for example, maize, oilseed rape and wheat; assay: Post-emergence test, summary for crop plants
Method: as §1, §5, §6, §7, §8

weeds [15] = assay: Pre-emergence test, summary for weeds
Method: as §1, §2, §3, §4

[16] = test system: crop plants, such as, for example, maize, soyabean and wheat; assay: Pre-emergence test, summary for crop plants
Method: as §1, §2, §3, §4

| SMILES | degree of damage to the plants, Amaranthus (Amaranthus) [%] | degree of damage to the plants, Chenopodium (Chenopodium) [%] | degree of damage to the plants, Digitaria (Digitaria [2]) [%] | degree of damage to the plants, Polygonum (Polygonum) [%] | degree of damage to the plants, Setaria (Setaria [4]) [%] | degree of damage to the plants, Solanum (Solanum) [%] | degree of damage to the plants, soybeans (soybeans) [%] | degree of damage to the plants, Avena fatua (Avena fatua [6]) [%] | degree of damage to the plants, Bromus (Bromus [7]) [%] | degree of damage to the plants, Digitaria (Digitaria [8]) [%] | degree of damage to the plants, Echinochloa (Echinochloa) [%] | degree of damage to the plants, Lolium (Lolium [9]) [%] | degree of damage to the plants, Setaria (Setaria [10]) [%] | degree of damage to the plants, Lolium (Lolium [3]) [%] | degree of damage to the plants, Stellaria (Stellaria) [%] | degree of damage to the plants, maize (maize) [%] | degree of damage to the plants, wheat (wheat) [%] | activity against weeds compared with the known compounds (A) and (B) (weeds [13]) | activity against weeds compared with the known compounds (A) to (G) (weeds [15]) | tolerance by crop plants [16] | also measured |
| --- | --- | --- | --- | --- | --- | --- | --- | --- | --- | --- | --- | --- | --- | --- | --- | --- | --- | --- | --- | --- | --- |
| COC(=O)c1csc(C)c1S(=O)(=O)NC(=O)n1nc(SC)n(C)c1=O [(G), methyl 4-[[[(4,5-dihydro-4-methyl-3-methylthio-5-oxo-1H-1,2,4-triazol-1-yl)carbonyl]amino]sulfonyl]-5-methyl-3-thiophenecarboxylate, reference compound] | 40 | 50 | 50 | 70 | 70 | 80 | 50 |  |  |  |  |  |  |  |  |  |  |  |  |  | degree of damage to the plants, Avena fatua (Avena fatua [1]): 50%; degree of damage to the plants, Galium (Galium): 30%; pest or weed control at 15 g/ha (Lolium [3]; Lolium, 504 h, read-out: degree of damage to the plants, Lolium): 60%; pest or weed control at 15 g/ha (Matricaria): 70%; pest or weed control at 15 g/ha (Stellaria; Stellaria, 504 h, read-out: degree of damage to the plants, Stellaria): 80%; pest or weed control at 15 g/ha (Xanthium; Xanthium, 504 h, read-out: degree of damage to the plants, Xanthium): 40%; plant injury at 15 g/ha (maize; Zea mays, 504 h, read-out: degree of damage to the plants, maize): 0%; plant injury at 15 g/ha (wheat; Triticum aestivum, 504 h, read-out: degree of damage to the plants, wheat): 0% |
| CCCc1nn(C(=O)NS(=O)(=O)c2c(C(=O)OC)csc2C)c(=O)n1C [Example 15] |  |  |  | 90 |  | 95 |  | 90 | 80 | 100 | 90 | 80 | 90 | 95 | 100 | 0 | 0 | considerably stronger activity against weeds | considerably stronger activity against weeds | tolerated well by crop plants | degree of damage to the plants, Alopecurus (Alopecurus [5]): 95%; degree of damage to the plants, Alopecurus (Alopecurus [11]): 100%; degree of damage to the plants, Bromus (Bromus [12]): 90%; degree of damage to the plants, Xanthium (Xanthium): 95%; compatibility with crop plants compared with the known compounds (A) and (B) [14]: substantially better compatibility with crop plants |
| CCOc1nn(C(=O)NS(=O)(=O)c2c(C(=O)OC)csc2C)c(=O)n1CC [Example 38] | 100 | 95 |  |  | 95 | 100 | 0 |  |  |  |  |  |  | 80 | 100 | 0 |  |  | considerably stronger activity against weeds | tolerated well by crop plants |  |
| CCOn1c(CC)nn(C(=O)NS(=O)(=O)c2c(C(=O)OC)csc2C)c1=O [Example 39] | 100 |  | 100 |  | 100 | 95 |  | 90 | 95 | 95 | 100 | 95 | 95 | 95 | 100 |  | 0 | considerably stronger activity against weeds | considerably stronger activity against weeds | tolerated well by crop plants | compatibility with crop plants compared with the known compounds (A) and (B) [14]: substantially better compatibility with crop plants |
